Where two headings read alike, the source gives them in different places.
Experiments:
A549 cells [1] = test: Antiproliferative SRB assay (NCI protocol), 48 h; assay type: cell-based; conditions: Homo sapiens; A549 (lung), SRB, 48 h drug exposure; read-out: 50% growth inhibition (GI50) ± SD, A549
Description: (§1) In vitro antiproliferative activity was evaluated using the protocol of the National Cancer Institute (NCI) after 48 h of drug exposure using the sulforhodamine B (SRB) assay. […] We cannot discard that increasing lipophilicity may well result in an increase in cytotoxicity in vitro.
(§2) The following human solid tumor cell lines were used in this study: HBL-100 (breast), HeLa (cervix), SW1573 (non-small cell lung), T-47D (breast), A549 (lung), and WiDr (colon). Cells were maintained in 25 cm^2 culture flasks in RPMI 1640 supplemented with 5% heat-inactivated fetal calf serum and 2 mM L-glutamine in a 37 °C, 5% CO2, 95% humidified air incubator. Exponentially growing cells were trypsinized and resuspended in antibiotic containing medium (100 units penicillin G and 0.1 mg of streptomycin per mL). Single-cell suspensions displaying >97% viability by trypan blue dye exclusion test were subsequently counted. After counting, dilutions were made to give the appropriate cell densities for inoculation onto 96-well microtiter plates. Cells were inoculated in a volume of 100 μL per well at densities of 20,000 (WiDr), 15,000 (T-47D and A549), and 10,000 (HeLa, SW1573, and HBL-100) cells per well, based on their doubling times.
(§3) Chemosensitivity tests were performed using the SRB assay of the NCI with slight modifications. Briefly, pure compounds were initially dissolved in DMSO at 400 times the desired final maximum test concentration. Control cells were exposed to an equivalent concentration of DMSO (0.25% v/v, negative control). Each agent was tested in triplicate at different dilutions in the range 1–100 μM. Drug treatment started on day 1 after plating. Drug incubation periods were 48 h, after which cells were precipitated with 25 μL of ice-cold 50% (w/v) trichloroacetic acid and fixed for 60 min at 4 °C. Then, the SRB assay was performed. Optical density (OD) of each well was measured at 492 nm, using BioTek’s PowerWave XS Absorbance Microplate Reader (Highland Park, Winooski, VT, USA). Values were corrected for background OD from wells containing only culture medium. The percentage growth (PG) was calculated with respect to untreated control cells (C) at each level of drug concentrations based on the difference in OD at the start time (T0) and at the end of drug exposure (T), according to NCI formulas. Therefore, if T is greater than or equal to T0, the calculation is 100 × [(T–T0)/(C–T0)]. If T is lower than T0, denoting cell death, the calculation is 100 × [(T–T0)/(T0)]. The effect is defined as the growth percentage, where 50% growth inhibition (GI50) represents the concentration at which PG is +50. Based on these calculations, a PG value of 0 corresponds to the number of cells present at the beginning of drug exposure, while negative PG values denote net cell death.

HBL100 cells [2] = test: Antiproliferative SRB assay (NCI protocol), 48 h; assay type: cell-based; conditions: Homo sapiens, HBL-100; HBL100 (breast), SRB, 48 h drug exposure; read-out: 50% growth inhibition (GI50) ± SD, HBL100
Description: as §1, §2, §3

HeLa cells [3] = test: Antiproliferative SRB assay (NCI protocol), 48 h; assay type: cell-based; conditions: Homo sapiens; HeLa (cervix), SRB, 48 h drug exposure; read-out: 50% growth inhibition (GI50) ± SD, HeLa
Description: as §1, §2, §3

SW1573 cells = test: Antiproliferative SRB assay (NCI protocol), 48 h; assay type: cell-based, human; conditions: for GI50: Homo sapiens, SW1573 (non-small cell lung), SRB, 48 h drug exposure, read-out: 50% growth inhibition (GI50) ± SD, SW1573; for Selectivity Index, SW1573: splenocyte CC50 versus SW1573 GI50
Description: as §1, §2, §3

T47-D cells = test: Antiproliferative SRB assay (NCI protocol), 48 h; assay type: cell-based, human; conditions: for GI50: Homo sapiens, T47D, T47-D (breast), SRB, 48 h drug exposure, read-out: 50% growth inhibition (GI50) ± SD, T47-D; for Selectivity Index, T47-D: splenocyte CC50 versus T47-D GI50
Description: as §1, §2, §3

WiDr cells = test: Antiproliferative SRB assay (NCI protocol), 48 h; assay type: cell-based, human; conditions: for GI50: Homo sapiens, WiDr (colon), SRB, 48 h drug exposure, read-out: 50% growth inhibition (GI50) ± SD, WiDr; for Selectivity Index, WiDr: splenocyte CC50 versus WiDr GI50
Description: as §1, §2, §3

[4] = test system: human solid tumor cell lines (A549, HBL-100, HeLa, SW1573, T-47D, WiDr); test: Antiproliferative SRB assay, whole panel of tumor cell lines; assay type: cell-based; conditions: for antiproliferative activity in words: tumor cell line panel, compared to cumanin (1); for GI50: Homo sapiens, all tested tumor cell lines, SRB, 48 h, read-out: GI50 values, range over all tested cell lines
Description: as §1, §2, §3

A549 cells [5] = test: Antiproliferative SRB assay (NCI protocol), 48 h; assay type: cell-based, human; conditions: splenocyte CC50 versus A549 GI50
HBL100 cells [6] = test: Antiproliferative SRB assay (NCI protocol), 48 h; assay type: cell-based, human; conditions: splenocyte CC50 versus HBL100 GI50
HeLa cells [7] = test: Antiproliferative SRB assay (NCI protocol), 48 h; assay type: cell-based, human; conditions: splenocyte CC50 versus HeLa GI50
[8] = Cytotoxicity on primary cell culture (propidium iodide, flow cytometry); assay type: cell-based
Description: The cytotoxicity of the sesquiterpene lactones and its derivatives was evaluated using mouse splenocytes. […] Cumanin derivatives (4–11) have shown CC50 values and selectivity indexes higher than natural compound 1. […] The incorporation of two triazole groups in cumanin (1) reduced cytotoxicity on normal cells and improved selectivity against tumor cell lines.
In a 96-well plate, spleen cells from Balb/c mouse (1.5 × 10^5) were incubated with different drug dilutions (200, 100, 50, 10, and 5 μg/mL) in RPMI medium containing 10% fetal calf serum. After 48 h of incubation at 37 °C (5% CO2), cells were harvested, washed once with PBS, and stained with 2.5 μg/mL propidium iodide (PI) for 5 min at room temperature. Subsequently, cell death was assessed by flow cytometry using a BD FACSaria II cytometer. Cells incubated only with a drug vehicle were used as a 100% viability control and death percentage was calculated according to the following formula: Death(%)=[1−(%PI^−cells)drug−treated/(%PI^−cells)100% viability control]×100.
Then the concentration capable of causing cell death in 50% of splenocytes (CC50) was determined using a non-linear regression approach.

SMILES	GI50 (A549 cells [1]) [nM]	GI50 (HBL100 cells [2]) [nM]	GI50 (HeLa cells [3]) [nM]	GI50 (SW1573 cells) [nM]	Selectivity Index, SW1573 (SW1573 cells)	GI50 (T47-D cells) [nM]	Selectivity Index, T47-D (T47-D cells)	GI50 (WiDr cells) [nM]	Selectivity Index, WiDr (WiDr cells)	antiproliferative activity in words [4]	Selectivity Index, A549 (A549 cells [5])	Selectivity Index, HBL100 (HBL100 cells [6])	Selectivity Index, HeLa (HeLa cells [7])	CC50 at 48 h ([8]; primary mouse splenocytes (spleen cells), Balb/c mouse spleen cells, 48 h incubation, PI staining, read-out: CC50 ± SD, splenocytes (concentration that causes 50% cell death)) [nM]	CC50 at 48 h ([8]; Balb/c, mouse) [nM]	GI50 [4] [nM]
C#CCOC1CC2C(C)CC3OC(=O)C(=C)C3CC2(C)C1OCC#C (stereo not shown) [Compound 9]	17000	19000	24000	20000	4.7	24000	3.9	2100	44.5	moderate activity	5.5	4.9	3.9			
C=C1C(=O)OC2CC(C)C3CC(OCc4cn(Cc5ccccc5)nn4)C(O)C3(C)CC12 (stereo not shown) [Compound 10]	18000	29000	32000	32000	3.5	37000	3.1	30000	3.8	moderate activity	6.3	3.9	3.5	114000		
C=C1C(=O)O[C@@H]2C[C@@H](C)[C@@H]3C=CC(=O)[C@@]3(C)[C@@H](O[Si](C)(C)C)[C@H]12 [Compound 13]	590	360	190	280	3.9	290	3.8	560	2.0		1.9	3.0	5.8		1100	150 to 590
C=C1C(=O)O[C@@H]2C[C@@H](C)[C@@H]3C=CC(=O)[C@@]3(C)[C@@H](O[Si](C)(C)C(C)C)[C@H]12 [Compound 14]	280	200	150	190	7.4	360	3.9	260	5.4		5.0	7.0	9.3		1400	150 to 590
